Measured values: PMC2797363, “Discovery of Novel Proteasome Inhibitors Using a High-Content Cell-Based Screening System” (PLoS ONE, 2009)

Biological target: T1, 26S proteasome (chymotryptic activity, LLVY-AMC; β5 subunit) (Oryctolagus cuniculus, UniProt G1T4Q9)
T1 construct: gene PSMB5; purified 26S proteasomes from rabbit muscle; with other subunits of the 26S proteasome
T1 sequence (G1T4Q9 60-263): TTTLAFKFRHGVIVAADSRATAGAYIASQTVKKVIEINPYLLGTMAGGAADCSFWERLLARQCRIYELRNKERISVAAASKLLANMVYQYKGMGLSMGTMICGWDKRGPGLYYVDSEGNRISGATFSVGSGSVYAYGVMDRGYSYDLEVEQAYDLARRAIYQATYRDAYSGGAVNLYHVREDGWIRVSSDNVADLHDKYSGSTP
Assay: Suc-LLVY-AMC fluorogenic hydrolysis by purified 26S proteasome, 30 μM compound
Assay type: biochemical

SMILES: Cn1c(=S)c2[nH]c(SCCN3C(=O)c4ccccc4C3=O)nc2n(C)c1=O [NSC99671, 2-[2-[(1,3-dimethyl-2-oxo-6-sulfanylidene-7H-purin-8-yl)sulfanyl]ethyl]isoindole-1,3-dione]
- Suc-LLVY-AMC fluorogenic hydrolysis by purified 26S proteasome, 30 μM compound: NSC99671 displayed a moderate inhibitory effect
